Some test systems named below: SF-295 CNS; SF-539 CNS; DMS 273 small cell lung; IGROV1 ovarian; K-562 leukemia; SNB-78 CNS; KM12 colon; NCI-H460 lung; HCC-2998 colon; ACHN renal.
Common to all, as to test: inhibition of tumour cell growth, NCI panel, 48 h

Structures are written as SMILES.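 Briefly, cells in 96-well plates were exposed to five compound concentrations for 48 h, and endpoints were estimated by linear interpolation. GI50: concentration for 50% inhibition of growth. The concentration for full growth arrest is given as TGI.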 Bounds are passed on as bounds.

Data on seven compounds can be found in PubChem BioAssay (NCI).

In the case of `CC(C)(C)C[P+](C)(C)c1ccccc1`, the TGI with SF-295 CNS, in the assay with SF-539 CNS, with DMS 273 small cell lung, in the assay on IGROV1 ovarian, with K-562 leukemia and in the assay with SNB-78 CNS was greater than 100000 nM in each case. In addition, the TGI in the assay on KM12 colon, in the assay on NCI-H460 lung, in the assay with HCC-2998 colon and in the assay on ACHN renal was greater than 100000 nM each time.
`CCc1oc2ccc(OC)c3c2c1C=CC=C3`: the TGI in the assay on SF-295 CNS, with SF-539 CNS, with DMS 273 small cell lung, in the assay on IGROV1 ovarian, in the assay on K-562 leukemia and in the assay with SNB-78 CNS was greater than 100000 nM in each case. The TGI in the assay with KM12 colon, in the assay with NCI-H460 lung, in the assay with HCC-2998 colon and in the assay on ACHN renal was greater than 100000 nM throughout.
Regarding `CP(C)C.[Ag][I]`, the TGI with SF-295 CNS was greater than 100000 nM; in the assay on SF-539 CNS, greater than 100000 nM; with DMS 273 small cell lung, greater than 100000 nM; in the assay with IGROV1 ovarian, greater than 100000 nM; with K-562 leukemia it was greater than 100000 nM; in the assay with SNB-78 CNS, 96100 nM. Also, the TGI in the assay with KM12 colon, in the assay with NCI-H460 lung, in the assay on HCC-2998 colon and in the assay on ACHN renal was greater than 100000 nM each time.
On to `N#C/C(=C\c1ccc(O)cc1O)C(N)=O`, for which the TGI in the assay on SF-295 CNS, in the assay on SF-539 CNS, with DMS 273 small cell lung, in the assay with IGROV1 ovarian, in the assay with K-562 leukemia and in the assay with SNB-78 CNS was greater than 100000 nM in each case. Moreover, the TGI in the assay with KM12 colon, in the assay on NCI-H460 lung, in the assay on HCC-2998 colon and in the assay on ACHN renal was greater than 100000 nM in each case.
Turning to `CCC[CH2][Sn]1([CH2]CCC)[O]C(=O)c2cc(C)ccc2[O]1`, the GI50 was 628 nM in the assay on SF-295 CNS; 521 nM in the assay with SF-539 CNS; 519 nM in the assay with DMS 273 small cell lung; 924 nM in the assay with IGROV1 ovarian; 222 nM in the assay on K-562 leukemia; 368 nM in the assay with SNB-78 CNS. Besides, the GI50 in the assay on KM12 colon is 1150 nM; in the assay with NCI-H460 lung, 1540 nM; with HCC-2998 colon, 670 nM; with ACHN renal it was 457 nM. In addition, the TGI in the assay with SF-295 CNS was 1990 nM; in the assay with SF-539 CNS, 1660 nM; with DMS 273 small cell lung it was 1730 nM; with IGROV1 ovarian, 2210 nM; in the assay on K-562 leukemia it was 1160 nM; in the assay on SNB-78 CNS, 1010 nM. For the same compound, the TGI in the assay with KM12 colon was found to be 2700 nM; in the assay with NCI-H460 lung, 2870 nM; in the assay with HCC-2998 colon, 1980 nM; with ACHN renal, 1590 nM.
Consider `CC12OC3CC(O1)C1(C=O)C4CCC5(C)C(c6ccc(=O)oc6)CCC5(O)C4CCC1(C3)O2` (stereo not given), for which the TGI with SF-295 CNS is 1020 nM; in the assay with SF-539 CNS, 228 nM; in the assay on DMS 273 small cell lung it was 235 nM; in the assay on IGROV1 ovarian, 2440 nM; in the assay on K-562 leukemia, greater than 100000 nM; in the assay with SNB-78 CNS it was 3660 nM. Moreover, the TGI worked out at 1400 nM in the assay with KM12 colon, 159 nM in the assay with NCI-H460 lung, 2000 nM in the assay with HCC-2998 colon and 348 nM with ACHN renal.
On to `CC1=NN(c2ccccc2)C(=O)C1N=Nc1ccc(Br)c(C)c1` (stereo not given), for which the TGI in the assay on SF-295 CNS, with SF-539 CNS, with DMS 273 small cell lung, with IGROV1 ovarian, in the assay with K-562 leukemia and in the assay on SNB-78 CNS was greater than 100000 nM throughout. In addition, the TGI with KM12 colon, with NCI-H460 lung, in the assay on HCC-2998 colon and in the assay with ACHN renal was greater than 100000 nM in each case.
